Assay results as given in patent publication US20070208166A1, “Tao Kinase Modulators And Method Of Use” (Exelixis, Inc., priority 2003, published 2007).

Experiments:
Type in all cases: biochemical
[1] = target: T1, JIK (Homo sapiens, UniProt Q9H2K8); assay: JIK Luciferase-Coupled Chemiluminescent Kinase assay (LCCA); settings: 2 μM ATP, 10 μM MBP, 6 nM JIK, 2 hours; read-out: JIK inhibition IC50
T1 construct: 6 nM JIK (baculovirus expressed human KIAA 1361 kinase domain2-318); made in house
T1 sequence (Q9H2K8 2-318): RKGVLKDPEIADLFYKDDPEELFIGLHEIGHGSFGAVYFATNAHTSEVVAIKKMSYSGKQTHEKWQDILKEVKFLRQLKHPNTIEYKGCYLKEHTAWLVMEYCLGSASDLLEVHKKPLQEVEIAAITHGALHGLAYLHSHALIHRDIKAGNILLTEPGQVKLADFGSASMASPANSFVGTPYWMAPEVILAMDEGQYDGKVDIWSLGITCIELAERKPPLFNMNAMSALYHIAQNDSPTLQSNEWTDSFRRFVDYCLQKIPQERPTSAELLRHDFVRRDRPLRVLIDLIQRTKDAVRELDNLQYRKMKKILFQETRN
Experimental: (§1) Kinase activity and compound inhibition are investigated using one or more of the three assay formats described below. The ATP concentrations for each assay are selected to be close to the Michaelis-Menten constant (KM) for each individual kinase. Dose-response experiments are performed at 10 different inhibitor concentrations in a 384-well plate format. The data are fitted to four-parameter equation (2) below; where Y is the observed signal, X is the inhibitor concentration, Min is the background signal in the absence of enzyme (0% enzyme activity), Max is the signal in the absence of inhibitor (100% enzyme activity), IC50 is the inhibitor concentration at 50% enzyme inhibition and H represents the empirical Hill's slope to measure the cooperativity. Typically H is close to unity. Y=Min+(Max−Min)/(1+(X/IC50)ˆH) Equation (2) KIAA 1361 Assay: […]
(§2) JIK biochemical activity was assessed using a Luciferase-Coupled Chemiluminescent Kinase assay (LCCA) format. Kinase activity was measured as the percent ATP remaining following the kinase reaction. Remaining ATP was detected by luciferase-luciferin-coupled chemiluminescence. Specifically, the reaction was initiated by mixing test compounds, 2 μM ATP, 10 μM MBP and 6 nM JIK (baculovirus expressed human KIAA 1361 kinase domain2-318) in a 20 uL assay buffer (20 mM Tris-HCL pH7.5, 10 mM MgCl2, 0.02% Triton X-100, 100 mM DTT, 2 mM MnCl2). The mixture is incubated at ambient temperature for 2 hours after which 20 uL luciferase-luciferin mix is added and the chemiluminescent signal read using a Wallac Victor^2 reader. The luciferase-luciferin mix consists of 50 mM HEPES, pH 7.8, 8.5 ug/mL oxalic acid (pH 7.8), 5 (or 50) mM DTT, 0.4% Triton X-100, 0.25 mg/mL coenzyme A, 63 uM AMP, 28 ug/mL luciferin and 40,000 units of light/mL luciferase.

[2] = target: T2, KIAA 1361 (baculovirus expressed human KIAA 1361 kinase domain 2-322) (Homo sapiens, UniProt Q7L7X3); assay: KIAA 1361 Luciferase-Coupled Chemiluminescent Kinase assay (LCCA); settings: 2 μM ATP, 10 μM MBP, 12 nM KIAA 1361, 2 hours; read-out: KIAA1361 inhibition IC50
T2 construct: human KIAA 1361 kinase domain 2-322; made in house
T2 sequence (Q7L7X3 2-322): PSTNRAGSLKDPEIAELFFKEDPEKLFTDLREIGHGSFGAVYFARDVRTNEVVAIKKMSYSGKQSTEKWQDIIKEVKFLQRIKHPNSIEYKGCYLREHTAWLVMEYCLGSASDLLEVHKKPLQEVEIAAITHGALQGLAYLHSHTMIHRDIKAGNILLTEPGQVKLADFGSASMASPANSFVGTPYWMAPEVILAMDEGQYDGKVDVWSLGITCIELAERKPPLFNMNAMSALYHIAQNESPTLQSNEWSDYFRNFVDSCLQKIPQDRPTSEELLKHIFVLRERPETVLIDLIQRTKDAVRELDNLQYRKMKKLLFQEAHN
Experimental: as §1
as §2, with “KIAA 1361 biochemical” for “JIK biochemical”, “and 12” for “and 6”, “nM KIAA 1361” for “nM JIK”, “kinase domain 2-322)” for “kinase domain2-318)”

[3] = target: T3, TAO (Homo sapiens, UniProt Q9UL54); assay: TAO Luciferase-Coupled Chemiluminescent Kinase assay (LCCA); settings: 2 μM ATP, 10 μM MBP, 12 nM TAO, 2 hours; read-out: TAO inhibition IC50
T3 sequence (Q9UL54 1-1235): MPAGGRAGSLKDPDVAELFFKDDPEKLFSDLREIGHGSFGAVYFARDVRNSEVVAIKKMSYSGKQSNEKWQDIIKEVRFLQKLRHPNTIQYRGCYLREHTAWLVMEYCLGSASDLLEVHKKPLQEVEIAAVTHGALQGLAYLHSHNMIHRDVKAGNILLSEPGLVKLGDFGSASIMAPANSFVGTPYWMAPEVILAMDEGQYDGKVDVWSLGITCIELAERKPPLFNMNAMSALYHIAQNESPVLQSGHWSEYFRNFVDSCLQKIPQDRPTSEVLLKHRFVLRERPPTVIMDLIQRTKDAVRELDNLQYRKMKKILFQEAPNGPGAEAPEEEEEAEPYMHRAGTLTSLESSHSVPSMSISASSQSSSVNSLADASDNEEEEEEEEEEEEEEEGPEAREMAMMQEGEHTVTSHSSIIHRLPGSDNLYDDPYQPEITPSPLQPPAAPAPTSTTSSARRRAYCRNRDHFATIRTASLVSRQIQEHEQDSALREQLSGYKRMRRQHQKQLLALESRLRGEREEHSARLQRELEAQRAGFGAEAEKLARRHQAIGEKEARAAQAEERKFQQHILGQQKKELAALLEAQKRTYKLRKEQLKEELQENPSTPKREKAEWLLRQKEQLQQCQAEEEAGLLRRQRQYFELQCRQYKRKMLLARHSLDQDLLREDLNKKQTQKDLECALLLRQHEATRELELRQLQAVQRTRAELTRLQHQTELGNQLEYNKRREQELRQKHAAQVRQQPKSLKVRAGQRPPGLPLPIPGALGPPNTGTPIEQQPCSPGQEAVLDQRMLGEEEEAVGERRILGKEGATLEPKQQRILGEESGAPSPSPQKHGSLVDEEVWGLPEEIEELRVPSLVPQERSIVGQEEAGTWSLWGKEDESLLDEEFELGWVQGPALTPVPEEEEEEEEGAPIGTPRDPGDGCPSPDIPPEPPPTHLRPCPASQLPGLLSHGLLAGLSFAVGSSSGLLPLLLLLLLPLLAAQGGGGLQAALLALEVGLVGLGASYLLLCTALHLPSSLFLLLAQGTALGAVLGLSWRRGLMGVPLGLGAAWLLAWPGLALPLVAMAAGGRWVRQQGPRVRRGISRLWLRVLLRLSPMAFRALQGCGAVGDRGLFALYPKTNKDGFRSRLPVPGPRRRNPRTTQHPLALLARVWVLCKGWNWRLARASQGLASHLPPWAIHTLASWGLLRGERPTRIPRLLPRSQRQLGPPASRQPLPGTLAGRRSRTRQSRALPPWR
Experimental: as §1
as §2, with “TAO biochemical” for “JIK biochemical”, “and 12” for “and 6”, “nM TAO” for “nM JIK”, “kinase domain 2-322)” for “kinase domain2-318)”, “mM […],” for “mM HEPES,”, “[…]” for “0.25 mg/mL”

| IC50 [1] [nM] | IC50 [2] [nM] | IC50 [3] [nM] | Compound |
| --- | --- | --- | --- |
| > 5000 | > 5000 | > 5000 | O=C(CNC(=O)c1cnc2ccccc2c1)NC1CCCc2ccccc21 (stereo not drawn) [Entry 46, N-[2-oxo-2-(1,2,3,4-tetrahydronaphthalen-1-ylamino)ethyl]quinoline-3-carboxamide] |
| > 5000 | > 5000 | > 5000 | CCc1ccc(-c2ccc(C(=O)NCC(=O)N[C@@H]3CCCc4ccccc43)cc2)cc1 [Entry 76, 4′-ethyl-N-{2-oxo-2-[(1R)-1,2,3,4-tetrahydronaphthalen-1-ylamino]ethyl}biphenyl-4-carboxamide] |
| < 50 | 50 to 500 | 50 to 500 | O=C(NC1CCCc2ccccc21)C(NC(=O)C(c1ccccc1)C1CCCC1)c1cccnc1 (stereo not drawn) [Entry 7, 2-cyclopentyl-N-[2-oxo-1-pyridin-3-yl-2-(1,2,3,4-tetrahydronaphthalen-1-ylamino)ethyl]-2-phenylacetamide] |
| < 50 | < 50 | < 50 | CCc1ccc(-c2ccc(C(=O)NCC(=O)N[C@H]3CCCc4ccccc43)cc2)cc1 [Entry 61, 4′-ethyl-N-{2-oxo-2-[(1S)-1,2,3,4-tetrahydronaphthalen-1-ylamino]ethyl}biphenyl-4-carboxamide] |
| > 5000 | > 5000 | > 5000 | O=C(CCN1CCCCC1)NCC(=O)NC1CCCc2ccccc21 (stereo not drawn) [Entry 88, N-[2-oxo-2-(1,2,3,4-tetrahydronaphthalen-1-ylamino)ethyl]-3-piperidin-1-ylpropanamide] |
| 50 to 500 | 500 to 5000 | > 5000 | CCc1ccc(-c2ccc(C(=O)NCC(=O)NC(CC)c3ccccc3)cc2)cc1 (stereo not drawn) [Entry 83, 4′-ethyl-N-{2-oxo-2-[(1-phenylpropyl)amino]ethyl}biphenyl-4-carboxamide] |
| > 5000 | > 5000 | > 5000 | O=C(CNC(=O)N1CCN(c2ccccc2)CC1)NC1CCCc2ccccc21 (stereo not drawn) [Entry 91, N-[2-oxo-2-(1,2,3,4-tetrahydronaphthalen-1-ylamino)ethyl]-4-phenylpiperazine 1-carboxamide] |
| 500 to 5000 | 500 to 5000 | 500 to 5000 | CCc1ccc(-c2ccc(C(=O)NCC(=O)NC3CNCc4ccccc43)cc2)cc1 (stereo not drawn) [Entry 96, 4′-ethyl-N-[2-oxo-2-(1,2,3,4-tetrahydroisoquinolin-4-ylamino)ethyl]biphenyl-4-carboxamide] |
| < 50 | < 50 | < 50 | COc1ccc2nc(NC(=O)CNC(=O)CC(NC(=O)c3ccccc3)c3ccccc3)sc2c1 (stereo not drawn) [Entry 63, N-{3-[(2-{[6-(methyloxy)-1,3-benzothiazol-2-yl]amino}-2-oxoethyl)amino]-3-oxo-1-phenylpropyl}benzamide] |
| < 50 | < 50 | 50 to 500 | O=C(CN1CCN(S(=O)(=O)CCc2cccc3ccccc23)CC1)Nc1ccccn1 [Entry 41, 2-{4-[(2-naphthalen-1-ylethyl)sulfonyl]piperazin-1-yl)-N-pyridin-2-ylacetamide] |
| 50 to 500 | 50 to 500 | > 5000 | CCCCOc1ccc(NC(=O)N[C@@H](COCc2ccccc2)C(=O)NCCc2ccccc2)cc1 [Entry 21, N˜2˜-({[4-(butyloxy)phenyl]amino}carbonyl)-N-(2-phenylethyl)-O-(phenylmethyl)serinamide] |
| 50 to 500 | 50 to 500 | 500 to 5000 | Cc1cc(C(=O)NCC(=O)NC2CCCc3ccccc32)cc(C)c1OCc1ccccc1 (stereo not drawn) [Entry 20, 3,5-dimethyl-N-{2-oxo-2-(1,2,3,4-tetrahydronaphthalen-1-ylamino)ethyl]-4-[(phenylmethyl)oxy]benzamide] |
| 50 to 500 | 50 to 500 | > 5000 | CCc1ccc(-c2ccc(C(=O)NCC(=O)NCc3ccccc3C(F)(F)F)cc2)cc1 [Entry 79, 4′-ethyl-N-[2-oxo-2-({[2-(trifluoromethyl)phenyl]methyl}amino)ethyl]biphenyl-4-carboxamide] |
